Laboratory results published in patent US20080114005A1, “Fibrate Compounds Having Ppar Agonist Activity” (Dr. Reddy's Laboratories Limited, priority 2004, published 2008).

Row | SMILES | melting point [°C]
1 | Cc1nc2ccccc2c(=O)n1CCNc1ccc(SC(C)(C)C(=O)O)cc1 [Example 2, 2-Methyl-2-{4-[2-(2-methyl-4-oxo-4H-quinazolin-3-yl)-ethylamino]-phenylsulfanyl}-propionic acid] | 226 to 228
2 | CCc1nc2ccccc2c(=O)n1CCNc1ccc(SC(C)(C)C(=O)O)cc1 [Example 4, 2-{4-[2-(2-Ethyl-4-oxo-4H-quinazolin-3-yl)-ethylamino]-phenylsulfanyl}-2-methyl-propionic acid] | 124 to 126
3 | CCCc1nc2ccccc2c(=O)n1CCNc1ccc(SC(C)(C)C(=O)O)cc1 [Example 6, 2-Methyl-2-{4-[2-(4-oxo-2-propyl-4H-quinazolin-3-yl)-ethylamino]-phenylsulfanyl}-propionic acid] | 162 to 164
4 | Cc1nc2ccccc2c(=O)n1CCCNc1ccc(SC(C)(C)C(=O)O)cc1 [Example 8, 2-Methyl-2-{4-[3-(2-methyl-4-oxo-4H-quinazolin-3-yl)-propylamino]-phenylsulfanyl}-propionic acid] | 162 to 164
5 | CCc1nc2ccccc2c(=O)n1CCCNc1ccc(SC(C)(C)C(=O)O)cc1 [Example 10, 2-{4-[3-(2-Ethyl-4-oxo-4H-quinazolin-3-yl)-propylamino]-phenylsulfanyl}-2-methyl-propionic acid] | 60 to 62
6 | Cc1nc2ccccc2c(=O)n1CCCCNc1ccc(SC(C)(C)C(=O)O)cc1 [Example 14, 2-Methyl-2-{4-[4-(2-methyl-4-oxo-4H-quinazolin-3-yl)-butylamino]-phenylsulfanyl}-propionic acid] | 100 to 102
7 | CCc1nc2ccccc2c(=O)n1CCCCNc1ccc(SC(C)(C)C(=O)O)cc1 [Example 16, 2-{4-[4-(2-Ethyl-4-oxo-4H-quinazolin-3-yl)-butylamino]-phenylsulfanyl}-2-methyl-propionic acid] | 58 to 62
8 | CCCc1nc2ccccc2c(=O)n1CCCCNc1ccc(SC(C)(C)C(=O)O)cc1 [Example 18, 2-Methyl-2-{4-[4-(4-oxo-2-propyl-4H-quinazolin-3-yl)-butylamino]-phenylsulfanyl}-propionic acid] | 100 to 104
9 | CCCc1nn(C)c2c(=O)n(CCOc3ccc(NC(C)C(=O)OCC)cc3)c(CC)nc12 (centres unmarked) [Example 19, 2-{4-[2-(5-Ethyl-1-methyl-7-oxo-3-propyl-1,7-dihydro-pyrazolo[4,3-d]pyrimidin-6-yl)-ethoxy]-phenylamino}-propionic acid ethyl ester] | 104 to 108
10 | CCOC(=O)C(C)(C)Sc1ccc(OCCn2c(C)nc3ccccc3c2=O)cc1 [Example 21, 2-Methyl-2-{4-[2-(2-methyl-4-oxo-4H-quinazolin-3-yl)-ethoxy]-phenylsulfanyl}-propionic acid ethyl ester] | 114 to 116
11 | Cc1nc2ccccc2c(=O)n1CCOc1ccc(SC(C)(C)C(=O)O)cc1 [Example 22, 2-Methyl-2-{4-[2-(2-methyl-4-oxo-4H-quinazolin-3-yl)-ethoxy]-phenylsulfanyl}-propionic acid] | 188 to 190
12 | CCc1nc2ccccc2c(=O)n1CCCOc1ccc(SC(C)(C)C(=O)O)cc1 [Example 24, 2-{4-[3-(2-Ethyl-4-oxo-4H-quinazolin-3-yl)-propoxy]-phenylsulfanyl}-2-methyl-propionic acid] | 156 to 158
13 | CCOC(=O)C(C)(C)Sc1ccc(OCCCn2c(C)nc3ccccc3c2=O)cc1 [Example 25, 2-Methyl-2-{4-[3-(2-methyl-4-oxo-4H-quinazolin-3-yl)-propoxy]-phenylsulfanyl}-propionic acid ethyl ester] | 162 to 164
14 | Cc1nc2ccccc2c(=O)n1CCCOc1ccc(SC(C)(C)C(=O)O)cc1 [Example 26, 2-Methyl-2-{4-[3-(2-methyl-4-oxo-4H-quinazolin-3-yl)-propoxy]-phenylsulfanyl}-propionic acid] | 144 to 146
15 | CCCc1nn(CC)c2c(=O)n(CCCOc3ccc(SC(C)(C)C(=O)O)cc3)c(C)nc12 [Example 28, 2-{4-[3-(1-Ethyl-5-methyl-7-oxo-3-propyl-1,7-dihydro-pyrazolo[4,3-d]pyrimidin-6-yl)-propoxy]-phenylsulfanyl}-2-methyl-propionic acid] | 118 to 120
16 | CCCc1nn(CC)c2c(=O)n(CCCOc3ccc(SC(C)(C)C(=O)O)cc3)c(CC)nc12 [Example 30, 2-{4-[3-(1,5-Diethyl-7-oxo-3-propyl-1,7-dihydro-pyrazolo[4,3-d]pyrimidin-6-yl)-propoxy]-phenylsulfanyl}-2-methyl-propionic acid] | 96 to 98

Row | SMILES | melting point [°C]
17 | CCCc1nn(C)c2c(=O)n(CCOc3ccc(SC(C)(C)C(=O)OCC)cc3)c(C)nc12 [Example 31, 2-{4-[2-(1,5-Dimethyl-7-oxo-3-propyl-1,7-dihydro-pyrazolo[4,3-d]pyrimidin-6-yl)-ethoxy]-phenylsulfanyl}-2-methyl-propionic acid ethyl ester] | 106 to 108
18 | CCCc1nn(C)c2c(=O)n(CCOc3ccc(SC(C)(C)C(=O)O)cc3)c(C)nc12 [Example 32, 2-{4-[2-(1,5-Dimethyl-7-oxo-3-propyl-1,7-dihydro-pyrazolo[4,3-d]pyrimidin-6-yl)-ethoxy]-phenylsulfanyl}-2-methyl-propionic acid] | 182 to 184
19 | CCOC(=O)C(C)(C)Sc1ccc(OCCn2c(CC)nc3ccccc3c2=O)cc1 [Example 33, 2-{4-[2-(2-Ethyl-4-oxo-4H-quinazolin-3-yl)-ethoxy]-phenylsulfanyl}-2-methyl-propionic acid ethyl ester] | 120 to 122
20 | CCc1nc2ccccc2c(=O)n1CCOc1ccc(SC(C)(C)C(=O)O)cc1 [Example 34, 2-{4-[2-(2-Ethyl-4-oxo-4H-quinazolin-3-yl)-ethoxy]-phenylsulfanyl}-2-methyl-propionic acid] | 148 to 150
21 | CCCc1nn(C)c2c(=O)n(CCCOc3ccc(SC(C)(C)C(=O)OCC)cc3)c(C)nc12 [Example 35, 2-{4-[3-(1,5-Dimethyl-7-oxo-3-propyl-1,7-dihydro-pyrazolo[4,3-d]pyrimidin-6-yl)-propoxy]-phenylsulfanyl}-2-methyl-propionic acid ethyl ester] | 52 to 54
22 | CCCc1nn(C)c2c(=O)n(CCCOc3ccc(SC(C)(C)C(=O)OCC)cc3)c(CC)nc12 [Example 39, 2-{4-[3-(5-Ethyl-1-methyl-7-oxo-3-propyl-1,7-dihydro-pyrazolo[4,3-d]pyrimidin-6-yl)-propoxy]-phenylsulfanyl}-2-methyl-propionic acid ethyl ester] | 52 to 54
23 | CCCc1nn(C)c2c(=O)n(CCCOc3ccc(SC(C)(C)C(=O)O)cc3)c(CC)nc12 [Example 40, 2-{4-[3-(5-Ethyl-1-methyl-7-oxo-3-propyl-1,7-dihydro-pyrazolo[4,3-d]pyrimidin-6-yl)-propoxy]-phenylsulfanyl}-2-methyl-propionic acid] | 115 to 117
24 | CCCc1nn(C)c2c(=O)n(CCNc3ccc(SC(C)(C)C(=O)OCC)cc3)c(CC)nc12 [Example 41, 2-{4-[2-(5-Ethyl-1-methyl-7-oxo-3-propyl-1,7-dihydro-pyrazolo[4,3-d]pyrimidin-6-yl)-ethylamino]-phenylsulfanyl}-2-methyl-propionic acid ethyl ester] | 105 to 107
25 | CCCc1nn(C)c2c(=O)n(CCNc3ccc(SC(C)(C)C(=O)O)cc3)c(CC)nc12 [Example 42, 2-{4-[2-(5-Ethyl-1-methyl-7-oxo-3-propyl-1,7-dihydro-pyrazolo[4,3-d]pyrimidin-6-yl)-ethylamino]-phenylsulfanyl}-2-methyl-propionic acid] | 187 to 189
26 | CCCc1nn(C)c2c(=O)n(CCOc3ccc(SC(C)(C)C(=O)O)cc3)c(CC)nc12 [Example 44, 2-{4-[2-(5-Ethyl-1-methyl-7-oxo-3-propyl-1,7-dihydro-pyrazolo[4,3-d]pyrimidin-6-yl)-ethoxy]-phenylsulfanyl}-2-methyl-propionic acid] | 104 to 106
27 | CCCc1nn(CC)c2c(=O)n(CCNc3ccc(SC(C)(C)C(=O)OCC)cc3)c(CC)nc12 [Example 47, 2-{4-[2-(1,5-Diethyl-7-oxo-3-propyl-1,7-dihydro-pyrazolo[4,3-d]pyrimidin-6-yl)-ethylamino]-phenylsulfanyl}-2-methyl-propionic acid ethyl ester] | 85 to 87
28 | CCCc1nn(CC)c2c(=O)n(CCNc3ccc(SC(C)(C)C(=O)O)cc3)c(CC)nc12 [Example 48, 2-{4-[2-(1,5-Diethyl-7-oxo-3-propyl-1,7-dihydro-pyrazolo[4,3-d]pyrimidin-6-yl)-ethylamino]-phenylsulfanyl}-2-methyl-propionic acid] | 143 to 145
29 | CCCc1nn(CC)c2c(=O)n(CCOc3ccc(SC(C)(C)C(=O)O)cc3)c(CC)nc12 [Example 50, 2-{4-[2-(1,5-Diethyl-7-oxo-3-propyl-1,7-dihydro-pyrazolo[4,3-d]pyrimidin-6-yl)-ethoxy]-phenylsulfanyl}-2-methyl-propionic acid] | 123 to 125
30 | CCCc1nn(CC)c2c(=O)n(CCOc3ccc(SC(C)(C)C(=O)OCC)cc3)c(C)nc12 [Example 51, 2-{4-[2-(1-Ethyl-5-methyl-7-oxo-3-propyl-1,7-dihydro-pyrazolo[4,3-d]pyrimidin-6-yl)-ethoxy]-phenylsulfanyl}-2-methyl-propionic acid ethyl ester] | 85 to 87
31 | CCCc1nn(CC)c2c(=O)n(CCOc3ccc(SC(C)(C)C(=O)O)cc3)c(C)nc12 [Example 52, 2-{4-[2-(1-Ethyl-5-methyl-7-oxo-3-propyl-1,7-dihydro-pyrazolo[4,3-d]pyrimidin-6-yl)-ethoxy]-phenylsulfanyl}-2-methyl-propionic acid] | 178 to 180
32 | CCCc1nn(CC)c2c(=O)n(CCOc3ccc(SC(C)(CC)C(=O)O)cc3)c(C)nc12 (centres unmarked) [Example 54, 2-{4-[2-(1-Ethyl-5-methyl-7-oxo-3-propyl-1,7-dihydro-pyrazolo[4,3-d]pyrimidin-6-yl)-ethoxy]-phenylsulfanyl}-2-methyl-butyric acid] | 155 to 157
